Source: patent publication US11155576B2, “Synthetic peptides, enzymatic formation of pericellular hydrogels/nanofibrils, and methods of use” (BRANDEIS UNIVERSITY, priority 2014, dated 2021)

Tests used:
HeLa cells [1] = experiment: Western blot of tubulin in pericellular nanonets versus CM; assay type: cell-based, human; conditions: nanonets after 3 or 6 hours of incubation versus CM collected at 24 hours
Method: To select the optimal incubation time for the collection of nanonets/hydrogel, HeLa cells were incubated with D-2a (for 3, 6, or 9 hours, respectively) to allow nanonet formation. The amount of tubulin (an indicator of autolysis) present in the nanonets/hydrogels at various time points was evaluated by Western blot and compared to the amount of tubulin present in conditioned media (“CM”) collected following 24 hours of incubation (FIG. 33A). […] The results also indicate the cell compatibility of the incubation and collection process for nanonets/hydrogel.

HeLa cells [2] = experiment: Negative stained TEM of pericellular hydrogel on HeLa cells; assay type: physicochemical, human; conditions: HeLa cells treated with 280 μM D-2a
Method: Carbon coated copper grids were glow-discharged to increase their hydrophilicity prior to use. Pericellular hydrogel/nanofibrils were obtained by incubating D-2a at 280 μM with HeLa cells for 2 hours. Cell culture medium was removed in order to expose the pericellular hydrogel. The carbon coated side of the grid was gently pressed onto the pericellular hydrogel for 1 second. Next, the sample-loaded surface was washed using a drop of ddH2O. To remove excess water from the grid, the edge of the grid was immediately tilted and blotted three times against a filter paper. The grid was stained by letting the grid touch a drop of 2.0% (w/v) uranyl acetate with the sample-loaded surface. Excessive stain solution was removed by gently touching the grid with a drop of ddH2O. The grid was then dried by touching the edge of the grid with a filter paper for 3 times. The grid was air dried for a few minutes and examined immediately.
That is, the nanofibrils form nanonets. Similar to the nanofibrils of D-2b formed by the addition of ALP into the solution of D-2a in PBS buffer (FIG. 7), these cell-surface nanofibrils entangle with each other to form the matrices of the hydrogel.

Ect1/E6E7 cells = experiment: Confocal microscopy, Congo red/DAPI staining, Ect1/E6E7; assay type: cell-based, human; conditions: 560 μM, 12 hours
Method: Cells in exponential growth phase were seeded in a glass bottomed culture chamber at 2×10^4 cells/well. Cells were allowed to attach for 24 hours at 37° C., 5% CO2. […] Following 12 hours of incubation, cells were washed 3 times with PBS prior to being stained with 0.1 mg/mL Congo red and 0.6 μM DAPI in PBS buffer (30 minutes at 37° C. in the dark). Next, cells were rinsed three times with PBS, and then kept in PBS for imaging.
Ect1/E6E7 cells (immortalized normal human cervical epithelial cells, which have same tissue and organ origins as HeLa cells) were treated with the same procedure as described for HeLa cells above. […] The difference of hydrogel/nanonets formation by D-2a conversion to D-2b on HeLa cells and Ect1/E6E7 cells agrees with the notion that HeLa cells have higher levels of phosphatase activity than Ect1/E6E7 cells (FIG. 9).

O=C(Cc1ccc2ccccc2c1)N[C@H](Cc1ccccc1)C(=O)N[C@H](Cc1ccccc1)C(=O)N[C@H](Cc1ccc(OP(=O)(O)O)cc1)C(=O)O [D-2a, Nap-D-Phe-D-Phe-D-Tyr(PO3H2)]
Amount of tubulin (indicator of autolysis) in nanonets (HeLa cells [1]): contain less tubulin than CM | Diameter of nanofibrils of the pericellular hydrogel (HeLa cells [2]): about 20 nm | Congo red fluorescence on cells (Ect1/E6E7 cells): hardly display any red fluorescence | DAPI entry into cells (Ect1/E6E7 cells): DAPI stains the nuclei
